Assay results reported in US10821117B2, “Estrogen therapy for brain gray matter atrophy and associated disability” (The Regents of the University of California, priority 2014, dated 2020).

What was measured:
[1] = tested on: relapsing remitting multiple sclerosis patients; experiment: Multiple Sclerosis Functional Composite (MSFC): PASAT3, 9-Hole Peg Test, 25-foot Walk Time; type: in vivo, human
Source text: Secondary efficacy end points included the proportion of subjects with a relapse over all 24 months, a change in PASAT cognitive testing, a sustained improvement in PASAT cognitive testing (as defined by an increase of at least 3 points sustained over at least 6 months), a change in EDSS scores from baseline, disability progression (as defined by an increase in EDSS of at least 1.0 point in subjects with a baseline score of 1.0 or higher, or by an increase of at least a 1.5 points in subjects with a baseline score of 0, each sustained for at least 6 months). Tertiary end points included gray matter atrophy on MRI.
(§1) Linear mixed effects model was carried out to compare the percent change in whole gray matter and cortical gray matter between treatment groups. For the exploratory endpoints of EDSS, PASAT, and brain volume measures, linear mixed effects model was used to compare treatment groups at 12 and 24 months. Linear mixed effects model was carried out to evaluate the association between PASAT change and percent brain volume change.
Another clinical disability measure with treatment effects was the timed 25-foot walk test. This test measures how many seconds it takes to walk 25 feet, with higher scores indicating worse disability. […] This beneficial effect of estriol treatment on 25-foot walking times is consistent with the beneficial effect of estriol treatment on EDSS scores since the latter is weighted toward being an indicator of ambulation.
There were no significant differences between groups in the Multiple Sclerosis Functional Composite (MSFC), which reflects a composite of scores including the Paced Auditory Serial Addition Test (PASAT) for cognition, the 9 hole peg test and the 25 foot walk test (Table 4). However, an interesting effect of combination treatment was observed on cognitive disability. A perfect PASAT score is 60, with scores lower than 55 serving as a continuous variable for disability. […] After 12 months of treatment, patients receiving Copaxone® plus estriol continued to have high PASAT scores to the end of study at month 24, while participants receiving placebo began to show […] PASAT scores by month 24. […] This represents repair of disability, not merely prevention of worsening. This beneficial effect on PASAT scores at 12 months in the Estriol plus GA group could not be attributed to practice effects of repeated testing since the comparison was with the Placebo plus GA group tested at identical time points.

[2] = tested on: relapsing remitting multiple sclerosis patients; experiment: Brain MRI enhancing lesions and brain volumes (pairwise Jacobian integration); type: in vivo, human
Protocol: as §1
• For Number of Enhancing Lesions, the data in this column are E+GA vs. P+GA mean of lesions number ratio (95% CI) and p-value based on mixed effect negative binomial regression model. • For Lesion Activity on Brain MRI, the data in this column are E+GA vs. P+GA odds ratio (95% CI) and p-value based on mixed effect logistic regression model. MRI Methodologies
Dual-echo fast spin echo: TR10000, TE12/95, 50 slices, 1×1×3 mm. Fluid attenuated inversion recovery (FLAIR): TR10380, TE88, T188, T12500, 50 slices, 1×1×3 mm. Minor changes were allowed to accommodate different platforms and field strengths at each site. MRI data in Dicom format were fully anonymized prior to transfer and then uploaded to the central MRI reading center database. Prior to study onset, each site provided a dummy scan utilizing the standardized sequences for review by the central MRI reading center to verify scan quality and fidelity. Quality control was maintained at each site using standard procedures for clinical scanners (daily phantoms, stability testing). Quarterly phantoms were collected from 12 of the 15 sites, most using the standard American College of Radiology (ACR) phatom. One site upgraded from a Siemens 1.5T to a 3.0T in November 2013, resulting in the acquisition of one month 24 scan on the new scanner. One site upgraded from a Phillips Achieva 3.0T to a Pillips Intera 3.0T after the first subject completed month 24. All subsequent studies were performed on the Intera.
MRI brain, whole gray matter, whole white matter and cortical gray matter volumes were determined using a pairwise Jacobian integration (PJI) method. Pre-processing for structural T1-weighted images included 1) N3 non-uniformity correction, 2) histogram-based intensity normalization, 3) linear standard space registration using ICBM 2009c nonlinear symmetric template, 4) patch-based brain extraction, and 5) lesion-inpainting. Inputs to PJI were a pair of baseline and follow-up pre-processed structural T1-weighed images. The PJI consisted of 1) linear skull-constrained symmetric registration, 2) halfway transformation and resampling, 3) nonlinear symmetric registration using ANTS, and 4) voxelwise Jacobian determinant calculation on the warp field. Whole gray matter and whole white matter tissue masks were generated by SPM8 Segment function. Additional nonlocal means denoising was applied. For whole brain tissue masks, the whole gray matter and whole white matter masks were combined. For cortical gray matter mask, a standard cortical mask was nonlinearly transformed and merged with gray matter mask. The standard template was the ICBM (ICBM 2009c nonlinear symmetric version), and the nonlinear registration was performed by ANTS. Finally, the Jacobian determinants were averaged within the masks for percent volume change in cortical gray matter, whole gray matter, whole white matter, and whole brain.

[3] = first of two lines headed Month 24 (N = 70 / N = 60), positive value indicates worsening
[4] = positive value indicates improvement
[5] = positive value indicates worsening
[6] = second line headed Month 24 (N = 60 / N = 55), positive value indicates worsening
[7] = negative value indicates improvement
[8] = negative value indicates worsening

With glatiramer acetate [Placebo + GA] the “PASAT score change at 12 months, within group comparison” value ([1]; FIG. 7B) was “no change”, the “PASAT scores improvement compared with baseline” value ([1]; by 12 months of treatment) was “no significant improvement” and the “25-foot Walk Time, Change from baseline at Month 24, Mean ± SD” value [1, 3] was 0.0 ± 0.9. For the same substance, the “25-foot Walk Time, Change from baseline at Month 24, Median” value [1, 3] was 0.0, the “timed 25-foot walk test, walk time” value ([1]; over the study, higher scores indicate worse disability) was “significantly increased” and the “MSFC Score, Change from baseline at Month 12, Mean ± SD” value [1, 4] was 0.06 ± 0.38. The “MSFC Score, Change from baseline at Month 24, Mean ± SD” value [1, 4] was 0.09 ± 0.43, the “PASAT3 score - All Patients, % change from baseline at Month 12, Mean ± SD” value [1, 4] was 0.8 ± 9.9% and the “PASAT3 score - All Patients, % change from baseline at Month 12, Median” value [1, 4] was 0%. For the same substance, the “PASAT3 score - All Patients, % change from baseline at Month 24, Mean ± SD” value [1, 4] was 2.7 ± 10.3%, the “PASAT3 score - All Patients, % change from baseline at Month 24, Median” value [1, 4] was 0% and the “PASAT3 score - All Patients, change from baseline at Month 12, Mean ± SD” value [1, 4] was 0.1 ± 4.5. For the same substance, the “PASAT3 score - All Patients, change from baseline at Month 12, Median” value [1, 4] was 0, the “PASAT3 score - All Patients, change from baseline at Month 24, Mean ± SD” value [1, 4] was 1.1 ± 4.3 and the “PASAT3 score - All Patients, change from baseline at Month 24, Median” value [1, 4] was 0. The “PASAT3 score - Patients with baseline score <55, % change from baseline at Month 12, Mean ± SD” value [1, 4] was 4.0 ± 14.0%, the “PASAT3 score - Patients with baseline score <55, % change from baseline at Month 12, Median” value [1, 4] was 3.8% and the “PASAT3 score - Patients with baseline score <55, % change from baseline at Month 24, Mean ± SD” value [1, 4] was 6.9 ± 14.7%. For the same substance, the “PASAT3 score - Patients with baseline score <55, % change from baseline at Month 24, Median” value [1, 4] was 9.1%, the “PASAT3 score - Patients with baseline score <55, change from baseline at Month 12, Mean ± SD” value [1, 4] was 1.6 ± 6.0 and the “PASAT3 score - Patients with baseline score <55, change from baseline at Month 12, Median” value [1, 4] was 1.0. For the same substance, the “PASAT3 score - Patients with baseline score <55, change from baseline at Month 24, Mean ± SD” value [1, 4] was 3.0 ± 5.9, the “PASAT3 score - Patients with baseline score <55, change from baseline at Month 24, Median” value [1, 4] was 4.0 and the “9-Hole Peg Test, Change from baseline at Month 12, Mean ± SD” value [1, 5] was −0.1 ± 1.8. The “9-Hole Peg Test, Change from baseline at Month 12, Median” value [1, 5] was −0.4, the “9-Hole Peg Test, Change from baseline at Month 24, Mean ± SD” value [1, 5] was −0.4 ± 1.5 and the “9-Hole Peg Test, Change from baseline at Month 24, Median” value [1, 5] was −0.5. For the same substance, the “25-foot Walk Time, Change from baseline at Month 24, Mean ± SD” value [1, 6] was 0.1 ± 1.1, the “25-foot Walk Time, Change from baseline at Month 24, Median” value [1, 6] was 0.1 and the “Lesion activity on Brain MRI - proportion of patients with enhancing lesion, Month 12 % (95% CI)” value ([2]; Month 12) was 21.0 (10.8-31.1) %. The “Lesion activity on Brain MRI - proportion of patients with enhancing lesion, Month 24 % (95% CI)” value ([2]; Month 24) was 14.6 (5.2-23.9) %, the “cortical gray matter volume change from baseline” value ([2]; month 12, FIG. 7C, mean percent change from baseline) was −0.74% and the “whole gray matter volume change from baseline” value ([2]; month 12, FIG. 7D, mean percent change from baseline) was −0.68%. The “Enhancing Lesion Volume, Change from baseline at Mon 12, Mean ± SD” value [2, 7] was −18.7 ± 184, the “Enhancing Lesion Volume, Change from baseline at Mon 12, Median” value [2, 7] was 0 and the “Enhancing Lesion Volume, Change from baseline at Mon 24, Mean ± SD” value [2, 7] was −34.0 ± 120. For the same substance, the “Enhancing Lesion Volume, Change from baseline at Mon 24, Median” value [2, 7] was 0, the “Number of Enhancing Lesions, Change from baseline to Mon 12, Mean ± SD” value [2, 7] was −0.5 ± 1.8 and the “Number of Enhancing Lesions, Change from baseline to Mon 12, Median” value [2, 7] was 0. For the same substance, the “Number of Enhancing Lesions, Change from baseline to Mon 24, Mean ± SD” value [2, 7] was −0.5 ± 2.4, the “Number of Enhancing Lesions, Change from baseline to Mon 24, Median” value [2, 7] was 0 and the “Cortical gray matter volume % change from baseline at Month 12, Mean ± SD” value [2, 8] was −0.72 ± 0.80%. The “Cortical gray matter volume % change from baseline at Month 12, Median” value [2, 8] was −0.67%, the “Cortical gray matter volume % change from baseline at Month 24, Mean ± SD” value [2, 8] was −1.04 ± 0.87% and the “Cortical gray matter volume % change from baseline at Month 24, Median” value [2, 8] was −0.93%. The “White matter volume % change from baseline at Month 12, Mean ± SD” value [2, 8] was −0.20 ± 0.83%, the “White matter volume % change from baseline at Month 12, Median” value [2, 8] was −0.11% and the “White matter volume % change from baseline at Month 24, Mean ± SD” value [2, 8] was −0.54 ± 1.12%. The “White matter volume % change from baseline at Month 24, Median” value [2, 8] was −0.56%, the “Whole Brain volume % change from baseline at Month 12, Mean ± SD” value [2, 8] was −0.50 ± 0.64% and the “Whole Brain volume % change from baseline at Month 12, Median” value [2, 8] was −0.43%. The “Whole Brain volume % change from baseline at Month 24, Mean ± SD” value [2, 8] was −0.78 ± 0.73%, the “Whole Brain volume % change from baseline at Month 24, Median” value [2, 8] was −0.91% and the “Whole gray matter volume % change from baseline at Month 12, Mean ± SD” value [2, 8] was −0.69 ± 0.71%. The “Whole gray matter volume % change from baseline at Month 12, Median” value [2, 8] was −0.68%, the “Whole gray matter volume % change from baseline at Month 24, Mean ± SD” value [2, 8] was −0.95 ± 0.76% and the “Whole gray matter volume % change from baseline at Month 24, Median” value [2, 8] was −0.93%.
